{
  "source": "patent US11607466B2",
  "about": "“Tumor and immune cell imaging based on PD-L1 expression” (The Johns Hopkins University, priority 2016, dated 2023)",
  "key": {"[1]": {"target": "T1, PD-L1 in A549-iPDL1 tumors (Homo sapiens, UniProt Q9NZQ7)", "T1 construct": "expressed in transfected cells; host or cells: A549 NSCLC cells, lentiviral pINDUCER20, G418-selected, doxycycline-induced; as xenografts for the in vivo unit", "T1 sequence (Q9NZQ7 19-290)": "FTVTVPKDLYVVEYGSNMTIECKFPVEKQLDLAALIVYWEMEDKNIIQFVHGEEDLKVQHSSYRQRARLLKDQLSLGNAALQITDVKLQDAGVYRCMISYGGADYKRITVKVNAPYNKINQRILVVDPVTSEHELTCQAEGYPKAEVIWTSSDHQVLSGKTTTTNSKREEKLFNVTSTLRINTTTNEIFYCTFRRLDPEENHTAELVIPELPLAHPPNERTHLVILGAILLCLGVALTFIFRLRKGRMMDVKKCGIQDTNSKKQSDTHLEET", "assay": "[64Cu]WL12 PET and biodistribution in A549-iPDL1 and A549 xenografts", "assay_type": "in vivo", "conditions": "72 h of doxycycline treatment", "excerpt": "To do so, an A549 NSCLC cell line with doxycycline-inducible PD-L1 expression (A549-iPD-L1) was generated. A549 is a Kras G12S lung adenocarcinoma cell line that expresses low PD-L1 at baseline. It has been transduced with PD-L1 in the all-in-one lentivirus pINDUCER20 vector (Meerbrey, et al., 2011), selected with G418, confirmed for PD-L1 induction by flow cytometry (FIG. 37A) and used for in vitro and in vivo studies. Cy5-PD-L1-mAbs binding to doxycycline-treated A549-iPDL1 cells was blocked by WL12 validating the specificity of WL12 (FIG. 37B). […] Accordingly, it is expected that PET will play a key role in quantifying dynamic changes in PD-L1 expression within the standard clinical work flow, providing a novel way to inform therapy decisions."}, "[2]": {"target": "T2, PD-L1 in A549-iPDL1 cells (Homo sapiens, UniProt Q9NZQ7)", "T2 construct": "expressed in transfected cells; host or cells: A549 NSCLC cells, lentiviral pINDUCER20, G418-selected, doxycycline-induced", "T2 sequence (Q9NZQ7 19-290)": "as above", "assay": "Binding studies in doxycycline-inducible A549-iPDL1 cells", "assay_type": "cell-based", "excerpt": "To do so, an A549 NSCLC cell line with doxycycline-inducible PD-L1 expression (A549-iPD-L1) was generated. A549 is a Kras G12S lung adenocarcinoma cell line that expresses low PD-L1 at baseline."}, "[3]": {"assay": "in vivo", "design": "species or system mouse", "conditions": "female, mouse, in vivo, iv, 40 uCi, total radioactivity, radioactivity uptake", "description": "(§1) 1.4.10. Animal Models: Animal studies were performed according to the protocols approved by the JHU Animal Care and Use Committee (ACUC). Six-to-eight week old, female, non-obese diabetic severe-combined immunodeficient gamma (NSG) mice were obtained from the JHU Immune Compromised Animal Core. Mice were implanted subcutaneously in opposite sides of the upper flanks with 10×10^6 of CHO-PDL1 and CHO cells. […] 1.4.12. […] For the blocking study, mice were co-injected with 2 mg/kg (50 μg) of unmodified peptide with the radiotracer. The percentage of injected dose per gram of tissue (% ID/g) values were calculated based on signal decay correction and normalization to external [^64Cu] standards, which were measured in triplicate. Biodistribution data shown is mean±the standard error of the mean (SEM)."}, "[4]": {"target": "T3, hPD-L1 tumors (Homo sapiens, UniProt Q9NZQ7)", "T3 construct": "expressed in transfected cells; grown as tumours in NSG mice for the in vivo units", "T3 sequence (Q9NZQ7 19-290)": "as above", "assay": "in vivo", "design": "species or system mouse", "description": "as §1"}, "[5]": {"target": "T4, PD-L1 in hPD-L1 cells (Homo sapiens, UniProt Q9NZQ7)", "T4 construct": "expressed in transfected cells; grown as tumours in NSG mice for the in vivo units", "T4 sequence (Q9NZQ7 19-290)": "as above", "assay": "In vitro binding of [64Cu]WL12 to hPD-L1 and CHO cells", "assay_type": "cell-based", "description": "(§2) 1.4.9. […] After incubation, cells were washed three times with cold PBS prior to counting on an automated gamma counter (1282 Compugamma CS, Pharmacia/LKBNuclear, Inc., Gaithersburg, Md.). […] Mean fluorescence intensity values were correlated with % incubated dose (% ID) uptake. All the cell uptake studies were performed in triplicate for each cell line and repeated three times."}, "[6]": {"target": "T5, PD-L1 in MDAMB231 cells (Homo sapiens, UniProt Q9NZQ7)", "T5 construct": "MDAMB231 breast cancer cells, which naturally express PD-L1; endogenous in cells; host or cells: MDAMB231 (ATCC)", "T5 sequence (Q9NZQ7 19-290)": "as above", "assay": "In vitro binding of [64Cu]WL12 to MDAMB231 and SUM149 cells", "assay_type": "cell-based", "conditions": "1 h incubation", "description": "as §2"}, "[7]": {"target": "T3, hPD-L1 tumors", "assay": "PET-CT imaging of [64Cu]WL12 in mice with hPD-L1 and CHO tumors", "assay_type": "in vivo, mouse", "description": "1.4.10. Animal Models: Animal studies were performed according to the protocols approved by the JHU Animal Care and Use Committee (ACUC). Six-to-eight week old, female, non-obese diabetic severe-combined immunodeficient gamma (NSG) mice were obtained from the JHU Immune Compromised Animal Core. Mice were implanted subcutaneously in opposite sides of the upper flanks with 10×10^6 of CHO-PDL1 and CHO cells. […] 1.4.11. […] Mice were maintained at 1% Isofluorane levels during imaging. PET images were acquired in two bed positions at 10 min/bed in an ARGUS small-animal PET/CT scanner (Sedecal, Madrid, Spain). A CT scan (512 projections) was performed at the end of each PET scan for anatomical co-registration. PET data were reconstructed using the two-dimensional ordered subsets-expectation maximization algorithm (2D-OSEM) and corrected for dead time and radioactive decay. The % ID per cc values were calculated based on a calibration factor obtained from a known radioactive quantity. Final data visualization and image generation was accomplished using Amira® (FEI, Hillsboro, Oreg.)."}, "[8]": {"target": "T6, PD-L1 in MDAMB231 tumors (Homo sapiens, UniProt Q9NZQ7)", "T6 construct": "MDAMB231 breast cancer cells, which naturally express PD-L1; endogenous in cells; host or cells: MDAMB231 (ATCC); as xenografts in NSG mice for the in vivo units", "T6 sequence (Q9NZQ7 19-290)": "as above", "assay": "Tumor PD-L1 engagement by PD-L1 mAbs measured with [64Cu]WL12, MDAMB231 xenografts", "assay_type": "in vivo", "conditions": "mAb 24 h prior, 120 min after tracer injection, ex vivo", "description": "To evaluate the effect of dose on tumor PD-L1 occupancy at the tumor, mice bearing MDAMB231 tumors were injected with escalating doses of AtzMab from 0.009 to 24 mg/kg body weight."}, "[9]": {"target": "T7, PD-L1 in HCC827, H226, hPD-L1 and MDAMB231 cells (Homo sapiens, UniProt Q9NZQ7)", "T7 construct": "Each of which naturally expresses PD-L1; endogenous in cells; host or cells: HCC827, H226, MDAMB231 (endogenous) and CHO-hPD-L1 (stably transfected)", "T7 sequence (Q9NZQ7 19-290)": "as above", "assay": "[64Cu]WL12 binding to PD-L1-positive cells in the presence of 60 nM mAbs", "assay_type": "cell-based", "conditions": "60 nM mAb vs PBS control", "description": "Non-interacting residues are shown in gray. […] Mean fluorescence intensities were determined by flow cytometry.\nHCC827 and H226 non-small cell lung cancer (NSCLC) cells also were tested."}, "[10]": {"target": "T6, PD-L1 in MDAMB231 tumors", "assay": "Tumor PD-L1 engagement by PD-L1 mAbs measured with [64Cu]WL12, MDAMB231 xenografts", "assay_type": "in vivo", "conditions": "AtzMab 20 mg/kg, AveMab 10 mg/kg, DurMab 10 mg/kg, 24 h prior to tracer"}, "[11]": {"target": "T8, PD-L1 in human NSCLC and TNBC xenografts (Homo sapiens, UniProt Q9NZQ7)", "T8 construct": "host or cells: MDAMB231, SUM149 (TNBC), H2444, H1155 (NSCLC) xenografts in mice", "T8 sequence (Q9NZQ7 19-290)": "as above", "conditions": "in vivo; cited from earlier work"}, "[12]": {"conditions": "mouse, in vivo, iv, 40 uCi, 1 h"}},
  "data": [
    {"compound": "CCCC[C@H]1C(=O)N(C)[C@@H](CCCC)C(=O)N[C@@H](CCCNC(=O)CCC(C(=O)O)N2CCN(CC(=O)O)CCN(CC(=O)O)CCN(CC(=O)O)CC2)C(=O)N[C@H](C(=O)NCC(N)=O)CSCC(=O)N[C@@H](Cc2ccc(O)cc2)C(=O)N(C)[C@@H](C)C(=O)N[C@@H](CC(N)=O)C(=O)N2CCC[C@H]2C(=O)N[C@@H](Cc2c[nH]cn2)C(=O)N[C@@H](CC(C)C)C(=O)N2C[C@H](O)C[C@H]2C(=O)N[C@@H](Cc2c[nH]c3ccccc23)C(=O)N[C@@H](CO)C(=O)N[C@@H](Cc2cn(C)c3ccccc23)C(=O)N1C", "note": "(single isomer, unassigned) [[^64Cu]WL12, metal not drawn]", "values": [
      {"measurement": "accumulation in A549-iPDL1 tumors higher than in A549 control tumors", "setting": "[1]", "value": 65, "unit": "%"},
      {"measurement": "increase in radioactivity uptake, doxycycline treated vs. untreated cells", "setting": "[2]; A549-iPDL1 cells", "value": 5.5, "unit": "fold"},
      {"measurement": "tissue uptake at 1 h", "setting": "[3]; control CHO tumor", "value": "4 ± 0.6", "unit": "%ID/g"},
      {"measurement": "tissue uptake at 1 h", "setting": "[3]; hPD-L1 tumors", "value": "14.9 ± 0.8", "unit": "%ID/g"},
      {"measurement": "tissue uptake at 1 h", "setting": "[3]; kidneys", "value": "34.4 ± 3.1", "unit": "%ID/g"},
      {"measurement": "tissue uptake at 1 h", "setting": "[3]; liver", "value": "24.2 ± 2.5", "unit": "%ID/g"},
      {"measurement": "reduction in % ID/g values in hPD-L1 tumors", "setting": "[4]; co-injected excess WL12 (50 μg, 2 mg/kg), 2 h", "value": "> 75", "unit": "%"},
      {"measurement": "change of uptake in control CHO tumors with blocking dose", "setting": "[4]; co-injected excess WL12, 2 h", "value": "no significant difference"},
      {"measurement": "affinity for mouse PD-L1", "setting": "[4]; inferred from low uptake in spleen, thymus, brown fat", "value": "very low or no affinity"},
      {"measurement": "tumor-to-blood ratio", "setting": "[4]; [12]", "value": "4.7±1.2"},
      {"measurement": "tumor-to-muscle ratio", "setting": "[4]; [12]", "value": "25.6±1.9"},
      {"measurement": "correlation (r) of mean fluorescence intensity with uptake of radioactivity", "setting": "[5]; hPD-L1, MDAMB231, SUM149, CHO cells", "value": 0.9977},
      {"measurement": "reduction in bound [64Cu]WL12", "setting": "[5]; hPD-L1 cells, 1 μM blocking dose of WL12", "value": "> 95", "unit": "%"},
      {"measurement": "increase in bound radioactivity compared to negative control CHO cells", "setting": "[5]; hPD-L1 cells, 1 h incubation", "value": 43, "unit": "fold"},
      {"measurement": "uptake of the incubated dose", "setting": "[5]; hPD-L1 cells, 1 h incubation", "value": "> 50", "unit": "%"},
      {"measurement": "uptake of radioactivity in MDAMB231 cells compared to SUM149 cells", "setting": "[6]", "value": "Two-fold higher"},
      {"measurement": "time of increased uptake in hPD-L1 tumors, PET", "setting": "[7]; 150 μCi i.v.", "value": "as early as 10 min and retained through 24 h post-injection"},
      {"measurement": "uptake in hPD-L1 tumor compared to CHO tumor, PET-CT", "setting": "[7]; 24 h after injection", "value": "Increased uptake"}
    ]},
    {"compound": "DurMab: FDA-approved PD-L1 mAb durvalumab", "values": [
      {"measurement": "decrease of [64Cu]WL12 binding to doxycycline-treated A549-iPDL1 cells", "setting": "[2]; 60 nM mAb", "value": 65, "unit": "%"},
      {"measurement": "less uptake of [64Cu]WL12 in tumors vs saline controls", "setting": "[8]", "value": "approximately 60%"},
      {"measurement": "[64Cu]WL12 binding to PD-L1-positive cells", "setting": "[9]", "value": "inhibited"},
      {"measurement": "[64Cu]WL12 uptake in MDAMB231 xenografts", "setting": "[10]", "value": "significantly reduced"}
    ]},
    {"compound": "[^111In]AtzMab: 111In-radiolabeled atezolizumab", "values": [
      {"measurement": "uptake in PD-L1high H2444 vs PD-L1low H1155 NSCLC xenografts", "setting": "[11]", "value": "Increased uptake"},
      {"measurement": "uptake in PD-L1high MDAMB231 vs PD-L1low SUM149 TNBC xenografts", "setting": "[11]", "value": "Increased uptake"}
    ]}
  ]
}
